Test results as given in ChEMBL document CHEMBL5506010, “Butyrylcholinesterase-Activated Near-Infrared Fluorogenic Probe for In Vivo Theranostics of Alzheimer's Disease” (J Med Chem, 2024).
pIC50: −log10 of the molar value. Calls of active or inactive are those of the source. The rule behind the calls is not given here.

Tests used:
Cholinesterase [1] = molecular target: T1, Cholinesterase (Homo sapiens, UniProt P06276); assay: Binding affinity to BChE (unknown origin) in PBS assessed as fold change in fluorescence intensity at 710 nm by fluorescence spectra analysis
Homo sapiens [2] = species on record: Homo sapiens; assay: Binding affinity to ALP (unknown origin) by fluorescence analysis
[3] = Neurotoxicity in mouse HT-22 cells assessed as reduction in cell viability at 50 uM; format: toxicity, cell-based; settings: ht-22, 50 µM
Homo sapiens [4] = species on record: Homo sapiens; assay: Binding affinity to lysozyme (unknown origin) by fluorescence analysis
Mus musculus [5] = assay: Antialzheimer activity in APP/PS1 transgenic AD mouse model assessed as improvement in NC scores administered intravenously once every 2 days for 10 times and measured on day 27 by Nest construction test; format: functional, organism-based; settings: route iv, time 27.0 day
[6] = Drug uptake in brain of 8 months old AD-mouse model assessed as increase in fluorescence at 100 uM, iv by fluorescence scanning analysis; format: ADME, organism-based; settings: in vivo
PC-12 [7] = assay: Binding affinity to BChE in rat PC-12 cells at 10 uM incubated for 1 hrs by fluorescence based confocal laser scanning microscopic analysis; format: cell-based
Mus musculus [8] = assay: Antialzheimer activity in APP/PS1 transgenic AD mouse model assessed as decrease in amyloid beta (1 to 42) level administered intravenously once every 2 days for 10 times and measured on day 30 by ELISA; format: functional, organism-based; settings: route iv, time 30.0 day
[9] = Toxicity in APP/PS1 transgenic AD mouse model assessed as kidney damage administered intravenously once every 2 days for 10 times and measured on day 30 by H and E staining based analysis; format: tissue-based; settings: in vivo, iv, 720 h, time 30 day
Cholinesterase [10] = molecular target: T1, Cholinesterase; assay: Binding affinity to BChE (unknown origin) assessed as enzyme mediated compound hydrolysis measured after 1 min by HPLC analysis relative to control; set-up: scale not given: the % may be the effect or the level left
Mus musculus [11] = assay: Antialzheimer activity in APP/PS1 transgenic AD mouse model assessed as improvement in learning administered intravenously once every 2 days for 10 times followed by morris water maze training from day 21 to 25 and measured on day 26 by Morris water maze test; format: functional, organism-based; settings: route iv, time 26.0 day
Cholinesterase [12] = molecular target: T1, Cholinesterase; assay: Binding affinity to BChE (unknown origin) in PBS assessed as cyan coloured appearance of compound by UV/vis absorption analysis
Cholinesterase [13] = molecular target: T1, Cholinesterase; assay: Binding affinity to BChE (unknown origin) in PBS assessed as Michaelis-menten constant by fluorometric method
PC-12 [14] = assay: Binding affinity to BChE in rat PC-12 cells assessed as increase in fluorescence intensity at 10 uM incubated for 24 hrs by fluorescence based confocal laser scanning microscopic analysis; format: cell-based
SH-SY5Y [15] = assay: Neuroprotective activity against amyloid-beta (1 to 42)-induced human SH-SY5Y cells assessed as increase in ACh level in culture medium at 10 to 20 uM incubated for 24 hrs by ELISA; format: functional, cell-based; settings: dose 10-20 µM
Cholinesterase [16] = molecular target: T1, Cholinesterase; assay: Binding affinity to BChE (unknown origin) in PBS assessed as […] at 680 nm by UV/vis absorption analysis
[17] = Toxicity in APP/PS1 transgenic AD mouse model assessed as spleen damage administered intravenously once every 2 days for 10 times and measured on day 30 by H and E staining based analysis; format: tissue-based; settings: in vivo, iv, 720 h, time 30 day
[18] = Toxicity in APP/PS1 transgenic AD mouse model assessed as heart damage administered intravenously once every 2 days for 10 times and measured on day 30 by H and E staining based analysis; format: tissue-based; settings: in vivo, iv, 720 h, time 30 day
[19] = Selectivity ratio of fluorescence intensity for binding affinity to AChE (unknown origin) in PBS to fluorescence intensity for binding affinity to BChE (unknown origin) in PBS
SH-SY5Y [20] = assay: Neuroprotective activity against amyloid-beta (1 to 42)-induced human SH-SY5Y cells assessed as increase in ACh level in cell lysate at 10 to 20 uM incubated for 24 hrs by ELISA; format: functional, cell-based; settings: dose 10-20 µM
Mus musculus [21] = assay: Antialzheimer activity in APP/PS1 transgenic AD mouse model assessed as increase in ACh level administered intravenously once every 2 days for 10 times and measured on day 30 by ELISA; format: functional, organism-based; settings: route iv, time 30.0 day
[22] = Drug uptake in brain of 8 months old AD-mouse model assessed as increase in fluorescence at 100 uM, iv preadministered with tacrine for 4 hrs followed by compound administration by fluorescence scanning analysis; format: ADME, organism-based; settings: in vivo
[23] = Stability of compound in male ICR mouse plasma at 100 uM, iv measured after 30 mins by fluorescence microplate reader; format: ADME, organism-based; settings: 0.5 h
[24] = Toxicity in APP/PS1 transgenic AD mouse model assessed as lung damage administered intravenously once every 2 days for 10 times and measured on day 30 by H and E staining based analysis; format: tissue-based; settings: in vivo, iv, 720 h, time 30 day
[25] = Toxicity in APP/PS1 transgenic AD mouse model assessed as liver damage administered intravenously once every 2 days for 10 times and measured on day 30 by H and E staining based analysis; format: tissue-based; settings: in vivo, iv, 720 h, time 30 day
[26] = Drug accumulation in brain of APP/PS1 transgenic AD-mouse model at 100 uM, iv measured at 5 to 60 mins by fluorescence imaging analysis; format: ADME, organism-based; settings: in vivo, time 5-60 min
Cholinesterase [27] = molecular target: T1, Cholinesterase; assay: Binding affinity to BChE in human LN-229 cells at 10 uM incubated for 1 hrs by fluorescence based confocal laser scanning microscopic analysis; format: cell-based
PC-12 [28] = assay: Binding affinity to BChE in rat PC-12 cells assessed as increase in fluorescence intensity incubated for 1 hrs by fluorescence based confocal laser scanning microscopic analysis; format: cell-based; settings: dose 1-10 µM
[29] = Drug uptake in brain of 6 weeks old AD-mouse model assessed as increase in fluorescence at 100 uM, iv preadministered with tacrine for 4 hrs followed by compound administration by fluorescence scanning analysis; format: ADME, organism-based; settings: in vivo
Acetylcholinesterase [30] = molecular target: T2, Acetylcholinesterase (Homo sapiens, UniProt P22303); assay: Inhibition of human AChE using acetylthiocholine iodide as substrate at 10 uM preincubated for 5 mins followed by substrate addition and measured immediately by Ellmans method relative to control
HT-22 [31] = assay: Inhibition of H2O2-induced ROS release in mouse HT-22 cells assessed as decrease in green fluorescence at 1 to 10 uM preincubated for 1 hrs followed by H2O2 addition and measured after 24 hrs by DCFH-DA based confocal laser scanning microscopic analysis; format: functional, cell-based; settings: dose 1-10 µM, time 25.0 hrs
HT-22 [32] = assay: Inhibition of H2O2-induced ROS release in mouse HT-22 cells assessed as increase in red fluorescence at 1 to 10 uM preincubated for 1 hrs followed by H2O2 addition and measured after 24 hrs by DCFH-DA based confocal laser scanning microscopic analysis; format: functional, cell-based; settings: dose 1-10 µM, time 25.0 hrs
Cholinesterase [33] = molecular target: T1, Cholinesterase; assay: Binding affinity to BChE in human SH-SY5Y cells at 10 uM incubated for 1 hrs by fluorescence based confocal laser scanning microscopic analysis; format: cell-based
Cholinesterase [34] = molecular target: T1, Cholinesterase; assay: Inhibition of human BChE using butyrylthiocholineiodide as substrate preincubated for 5 mins followed by substrate addition and measured immediately by Ellmans method
Mus musculus [35] = assay: Antialzheimer activity in APP/PS1 transgenic AD mouse model assessed as improvement in recognition index for novel objects administered intravenously once every 2 days for 10 times and measured on day 28 by Novel object recognition test; format: functional, organism-based; settings: route iv, time 28.0 day
[36] = Stability of compound in male ICR mouse brain at 100 uM, iv measured at 5 to 60 mins by fluorescence microplate reader; format: ADME, organism-based; settings: time 5-60 min
Acetylcholinesterase [37] = molecular target: T2, Acetylcholinesterase; assay: Binding affinity to AChE (unknown origin) by fluorescence analysis

T1 sequence (P06276 whole entry): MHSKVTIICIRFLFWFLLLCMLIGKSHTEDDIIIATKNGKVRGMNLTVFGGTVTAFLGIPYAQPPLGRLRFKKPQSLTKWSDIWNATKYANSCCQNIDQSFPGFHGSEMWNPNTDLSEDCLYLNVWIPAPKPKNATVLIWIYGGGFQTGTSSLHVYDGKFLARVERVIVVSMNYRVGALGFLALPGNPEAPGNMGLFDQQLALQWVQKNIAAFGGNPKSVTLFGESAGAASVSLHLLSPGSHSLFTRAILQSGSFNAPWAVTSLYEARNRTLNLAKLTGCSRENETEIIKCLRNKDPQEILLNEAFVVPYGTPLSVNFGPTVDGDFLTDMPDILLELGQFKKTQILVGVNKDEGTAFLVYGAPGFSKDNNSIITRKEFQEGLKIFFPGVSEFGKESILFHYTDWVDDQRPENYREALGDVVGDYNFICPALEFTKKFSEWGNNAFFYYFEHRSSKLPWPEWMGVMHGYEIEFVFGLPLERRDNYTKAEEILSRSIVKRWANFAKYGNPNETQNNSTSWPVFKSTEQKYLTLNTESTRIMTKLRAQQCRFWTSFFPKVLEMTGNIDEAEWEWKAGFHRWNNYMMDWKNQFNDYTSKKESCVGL
T2 sequence (P22303 whole entry): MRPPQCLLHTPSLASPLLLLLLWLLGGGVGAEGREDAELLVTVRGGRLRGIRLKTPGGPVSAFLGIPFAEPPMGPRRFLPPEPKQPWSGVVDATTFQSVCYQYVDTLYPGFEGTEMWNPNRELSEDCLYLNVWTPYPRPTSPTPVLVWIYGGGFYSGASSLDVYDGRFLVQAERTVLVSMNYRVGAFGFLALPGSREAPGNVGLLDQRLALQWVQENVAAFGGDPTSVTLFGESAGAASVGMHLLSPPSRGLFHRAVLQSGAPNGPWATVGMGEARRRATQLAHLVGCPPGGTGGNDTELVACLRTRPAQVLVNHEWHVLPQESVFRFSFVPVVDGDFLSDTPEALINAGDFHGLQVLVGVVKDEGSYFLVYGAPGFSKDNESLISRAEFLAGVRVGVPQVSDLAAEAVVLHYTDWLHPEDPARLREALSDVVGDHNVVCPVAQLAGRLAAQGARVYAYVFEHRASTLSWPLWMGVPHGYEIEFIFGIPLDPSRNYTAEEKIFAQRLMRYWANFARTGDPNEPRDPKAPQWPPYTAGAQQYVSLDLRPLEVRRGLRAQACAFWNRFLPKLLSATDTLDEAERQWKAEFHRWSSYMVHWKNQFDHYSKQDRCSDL

In the case of `CCN(CC)Cc1ccccc1CNC(=O)c1cccc(NC(=O)c2cccc(C(=O)NCCn3cc(CCC[N+]4=C(/C=C/C5=C6Oc7cc(OC(=O)C8CC8)ccc7C=C6CCC5)C(C)(C)c5ccccc54)nn3)c2)c1.[I-]`, the fold change (FC) (Cholinesterase [1]) was 24, the Activity (Homo sapiens [2]) was “inactive” and the Activity [3] was “Non-Toxic”. For the same compound, the Activity (Homo sapiens [4]) was “inactive”, the Activity (Mus musculus [5]) was “Active” and the Drug uptake [6] was “Active”. For the same compound, the Activity (PC-12 [7]) was “Active”, the Activity (Mus musculus [8]) was “Active” and the Activity [9] was “Non-Toxic”. The Activity (Cholinesterase [10]) was 50%, the Activity (Mus musculus [11]) was “Active” and the Activity (Cholinesterase [12]) was “Active”. The Activity (Cholinesterase [13]) was 12.9 µM, the Activity (PC-12 [14]) was “Active” and the Activity (SH-SY5Y [15]) was “Active”. The Activity (Cholinesterase [16]) was “Active”, the Activity [17] was “Non-Toxic” and the Activity [18] was “Non-Toxic”. The Selectivity ratio [19] was 22.8, the Activity (SH-SY5Y [20]) was “Active” and the Activity (Mus musculus [21]) was “Active”. The Drug uptake [22] was “Not Active”, the Stability [23] was “Stable” and the Activity [24] was “Non-Toxic”. The Activity [25] was “Non-Toxic”, the Drug uptake [26] was “Active” and the Activity (Cholinesterase [27]) was “Active”. The Activity (PC-12 [28]) was “Dose-Dependent Effect”, the Drug uptake [29] was “Not Active” and the inhibition (Acetylcholinesterase [30]) was 12.3%. The inhibition (HT-22 [31]) was “Active”, the inhibition (HT-22 [32]) was “Active” and the Activity (Cholinesterase [33]) was “Active”. The pIC50 (Cholinesterase [34]) was 7.53, the Activity (Mus musculus [35]) was “Active” and the Stability [36] was “Stable”. The Activity (Acetylcholinesterase [37]) was “inactive”.
